From patent US8143273B2, “Quinolizidine and indolizidine derivatives” (Hoffman-La Roche Inc., priority 2010, dated 2012)

These compounds were tested against T1, mGlyT-1b (Mus musculus, UniProt P28571) (assay: Glycine uptake inhibition assay (mGlyT-1b)). Conditions: [3H]-glycine uptake in Flp-In CHO cells transfected with mGlyT-1b cDNA.
T1 construct: host or cells: Flp-In CHO
T1 sequence (P28571 1-651 isoform P28571-2): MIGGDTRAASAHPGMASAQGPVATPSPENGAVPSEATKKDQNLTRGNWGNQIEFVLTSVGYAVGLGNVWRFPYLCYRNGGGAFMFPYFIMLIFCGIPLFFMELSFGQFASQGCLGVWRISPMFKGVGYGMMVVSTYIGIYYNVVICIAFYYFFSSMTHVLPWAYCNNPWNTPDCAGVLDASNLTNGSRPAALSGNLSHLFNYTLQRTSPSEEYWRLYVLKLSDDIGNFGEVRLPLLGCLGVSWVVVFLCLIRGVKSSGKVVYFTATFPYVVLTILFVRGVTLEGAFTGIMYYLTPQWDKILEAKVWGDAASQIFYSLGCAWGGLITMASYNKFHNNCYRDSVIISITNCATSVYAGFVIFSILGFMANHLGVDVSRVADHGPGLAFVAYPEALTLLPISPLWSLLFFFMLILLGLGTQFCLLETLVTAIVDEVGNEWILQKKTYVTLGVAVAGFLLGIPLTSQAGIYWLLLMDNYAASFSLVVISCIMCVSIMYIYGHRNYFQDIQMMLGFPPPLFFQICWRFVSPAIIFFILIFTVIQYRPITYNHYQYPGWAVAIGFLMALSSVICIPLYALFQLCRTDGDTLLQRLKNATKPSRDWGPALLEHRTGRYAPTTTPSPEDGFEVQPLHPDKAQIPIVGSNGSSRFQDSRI
Type: cell-based
Description: DMEM complete medium: Nutrient mixture F-12 (Gibco Life-technologies), fetal bovine serum (FBS) 5%, (Gibco life technologies), Penicillin/Streptomycinl % (Gibco life technologies), Hygromycin 0.6 mg/ml (Gibco life technologies), Glutamine 1 mM Gibco life technologies)
Uptake buffer (UB): 150 mM NaCl, 10 mM Hepes-Tris, pH 7.4, 1 mM CaCl2, 2.5 mM KCl, 2.5 mM MgSO4, 10 mM (+) D-glucose.
Flp-In™ CHO (Invitrogen Cat no R758-07) cells stably transfected with mGlyTlb cDNA.
Glycine uptake inhibition assay (mGlyT-1b)
On day 1 mammalian cells, (Flp-In™ CHO), transfected with mGlyT-1b cDNA, were plated at the density of 40,000 cells/well in complete F-12 medium, without hygromycin in 96-well culture plates. On day 2, the medium was aspirated and the cells were washed twice with uptake buffer (UB). The cells were then incubated for 20 min at 22° C. with either (i) no potential competitor, (ii) 10 mM non-radioactive glycine, (iii) a concentration of a potential inhibitor. A range of concentrations of the potential inhibitor was used to generate data for calculating the concentration of inhibitor resulting in 50% of the effect (e.g. IC50, the concentration of the competitor inhibiting glycine uptake of 50%). A solution was then immediately added containing [^3H]-glycine 60 nM (11-16 Ci/mmol) and 25 μM non-radioactive glycine. The plates were incubated with gentle shaking and the reaction was stopped by aspiration of the mixture and washing (three times) with ice-cold UB. The cells were lysed with scintillation liquid, shaken 3 hours and the radioactivity in the cells was counted using a scintillation counter.

IC50 [nM]	SMILES
17	COc1cc(C(F)(F)F)cc(SC)c1C(=O)NC1(c2ccccc2)CCC2CCCN2C1 (single isomer, unassigned; diastereoisomer 1) [Example 3, 2-Methoxy-6-methylsulfanyl-N-(6-phenyl-octahydro-indolizin-6-yl)-4-trifluoromethyl-benzamide (diastereoisomer 1)]
80	COc1cc(C(F)(F)F)cc(SC)c1C(=O)N[C@]1(c2ccccc2)CCCN2CCCC[C@@H]21 (racemic) [Example 1, 2-Methoxy-6-methylsulfanyl-N-((1S,R; 9aR,S)-1-phenyl-octahydro-quinolizin-1-yl)-4-trifluoromethyl-benzamide]
13	COc1cc(C(F)(F)F)cc(SC)c1C(=O)NC1(c2ccccc2)CCC2CCCN2C1 (single isomer, unassigned; diastereoisomer 2) [Example 4, 2-Methoxy-6-methylsulfanyl-N-(6-phenyl-octahydro-indolizin-6-yl)-4-trifluoromethyl-benzamide (diastereoisomer 2)]
25	COc1cc(C(F)(F)F)cc(SC)c1C(=O)N[C@]1(c2ccccc2)CCCN2CCC[C@@H]21 (racemic) [Example 2, 2-Methoxy-6-methylsulfanyl-N-((8S,R; 8aR,S)-8-phenyl-octahydro-indolizin-8-yl)-4-trifluoromethyl-benzamide]
28	COc1cc(C(F)(F)F)cc(SC)c1C(=O)NC1(c2ccccc2)CCC2CCCCN2C1 (centres unmarked) [Example 5, 2-Methoxy-6-methylsulfanyl-N-(3-phenyl-octahydro-quinolizin-3-yl)-4-trifluoromethyl-benzamide]
